Test results reported in PubChem BioAssay (NCI).
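Values below derive from 48-hour exposures of cells grown in 96-well plates, with endpoints linearly interpolated between the two concentrations bracketing the appropriate inhibition level. GI50 = concentration required for 50% inhibition of growth. Definition used: TGI = concentration required for complete inhibition of growth.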

Key:
Test in all cases: inhibition of tumour cell growth, NCI panel, 48 h
SK-MEL-2 melanoma = system: SK-MEL-2 melanoma
SW-620 colon = system: SW-620 colon
NCI-H226 lung = system: NCI-H226 lung
NCI-H460 lung = system: NCI-H460 lung
COLO 205 colon = system: COLO 205 colon
SR leukemia = system: SR leukemia
HCT-15 colon = system: HCT-15 colon
MDA-MB-231 breast = system: MDA-MB-231 breast
RPMI-8226 leukemia = system: RPMI-8226 leukemia
MCF7 breast = system: MCF7 breast

Row | SMILES | TGI (SK-MEL-2 melanoma) [µM] | TGI (SW-620 colon) [µM] | TGI (NCI-H226 lung) [µM] | TGI (NCI-H460 lung) [µM] | TGI (COLO 205 colon) [µM] | TGI (SR leukemia) [µM] | TGI (HCT-15 colon) [µM] | GI50 (SK-MEL-2 melanoma) [µM] | GI50 (MDA-MB-231 breast) [µM] | TGI (MDA-MB-231 breast) [µM] | GI50 (RPMI-8226 leukemia) [µM] | TGI (RPMI-8226 leukemia) [µM] | GI50 (SW-620 colon) [µM] | GI50 (NCI-H460 lung) [µM] | GI50 (COLO 205 colon) [µM] | GI50 (HCT-15 colon) [µM] | TGI (MCF7 breast) [µM] | GI50 (NCI-H226 lung) [µM] | GI50 (MCF7 breast) [µM] | GI50 (SR leukemia) [µM]
1 | CC(C)OCN1COCN=C1NC#N | > 100 | 34.8 | > 100 | > 100 | 47.9 | > 100 | 34.2 |  |  |  |  |  |  |  |  |  |  |  |  | 
2 | COC(=O)/C(=C/N1CCN(C(=O)c2ccco2)C1=S)C(C)=O | 51 | 12.5 |  | 5.88 | 35.8 |  | 5.77 | 15.2 | 9.01 | 26.5 | 5.49 | > 100 | 3.9 | 2.19 | 12.6 | 2.22 |  |  |  | 
3 | C=C(C)C1CC[C@]2(C(=O)O)CCC3(C)[C@H](CCC4[C@@]5(C)CC[C@H](OC6OC(CO)C(O)C6OC6OC(C)C(O)C(O)C6O)[C@@](C)(CO)C5CC[C@]43C)C12 (some centres undefined) | > 100 | > 100 | > 100 | > 100 | > 100 | > 100 | > 100 |  |  |  |  |  |  |  |  |  |  |  |  | 
4 | CC(NC1CCC[C@H]1O)c1ccccc1 (mixture of isomers) | > 100 | > 100 | > 100 | > 100 | > 100 |  | > 100 |  |  |  |  | > 100 |  |  |  |  |  |  |  | 
5 | CN/N=C(\C)CC(=O)Nc1cccc(Cl)c1C | > 100 |  | > 100 | > 100 | > 100 | 53.5 | > 100 |  |  |  |  | > 100 |  |  |  |  |  |  |  | 
6 | COCCN1C2=CCCCC2=Nc2c(N)nc(N)nc21 | > 100 |  | > 100 | > 100 | > 100 | > 100 | > 100 |  |  |  |  | > 100 |  |  |  |  |  |  |  | 
7 | O=C(O)C1Cc2nc[nH]c2CN1 (centres undefined) | > 100 | > 100 | > 100 | > 100 | > 100 | > 100 | > 100 |  |  |  |  | > 100 |  |  |  |  |  |  |  | 
8 | O=C1C=C(Br)C(=O)C(Br)=C1 | > 100 | > 100 | > 100 | > 100 | > 100 | > 80.6 | > 100 |  |  |  |  | > 82.2 |  |  |  |  |  |  |  | 
9 | CC(=O)N1c2ccccc2C23CCN4CC5=CCOC(O)C(C5CC42)C13 (centres undefined) | > 100 | > 100 | > 100 | > 100 | > 100 |  | > 100 |  |  | > 100 |  | > 100 |  |  |  |  | > 100 |  |  | 
10 | Cc1cccc(NC(=O)CC2C(=O)Nc3ccccc3S2(=O)=O)c1C (centres undefined) | 75.4 | 84.2 | 58.3 | 82.4 | > 100 | 48 | > 100 |  |  |  |  |  |  |  |  |  |  |  |  | 
11 | COCCOC(C)C(/C=N/NC(N)=S)=N/NC(N)=S (centres undefined) | > 100 | > 100 | > 100 | > 100 | > 100 |  | > 100 | > 100 |  |  | 0.0725 | > 100 | > 100 | > 100 | > 100 | > 100 |  | > 100 |  | 
12 | COc1ccc(-c2c(N)[n+]([O-])c3cc(C)c(C)cc3[n+]2[O-])cc1OC | > 100 | > 100 | > 100 | > 100 | 50.3 |  | > 100 |  |  |  |  | > 100 |  |  |  |  |  |  |  | 
13 | COc1cc(C2C(C(=O)O)=C(C)Oc3cc4c(cc32)OCO4)cc(OC)c1OC (centres undefined) |  | > 100 |  | > 100 | 60.6 |  | > 100 |  |  |  |  |  |  |  |  |  |  |  |  | 
14 | Cc1ccc(NC2=C(Cl)C(=O)c3nc(C)ccc3C2=O)cc1 | 3.79 | 3.7 | 3.2 | 4.57 | 4.37 |  | 2.32 | 1.82 | 1.41 | 2.96 | 1.41 | 4.2 | 1.74 | 1.69 | 1.93 | 0.694 |  | 1.41 |  | 
15 | CCCCCN(CCCCC)C(=O)[C@@H](CCC(=O)OCc1ccccc1)NC(=O)c1cc2ccccc2[nH]1 | > 100 | > 100 |  | > 100 | > 100 |  | > 100 |  |  |  |  |  |  |  |  |  |  |  |  | 
16 | Fc1cccc(F)c1C1SCc2nc3ccccc3n21 (centres undefined) | > 100 | > 100 | > 100 | > 100 | > 100 |  | > 100 |  |  |  |  | > 100 |  |  |  |  |  |  |  | 
17 | COC(=O)C(C(=O)C(=O)Nc1ccccc1OC)c1csc(-n2nc(-c3ccccc3)cc2-c2ccccc2)n1 (centres undefined) |  | > 100 | > 100 | > 100 | > 100 | > 100 | > 100 |  |  |  |  | > 100 |  |  |  |  |  |  |  | 
18 | COc1ccc(/C=N/NC(=O)O)cc1 | > 100 | > 100 |  | > 100 | > 100 | > 100 | > 100 |  |  | > 100 |  | > 100 |  |  |  |  | > 100 |  |  | 
19 | N#Cc1cccc(Nc2nccc(-c3cnn4ncccc34)n2)c1 | 0.0105 | > 25 | 0.0152 | > 25 | 0.00663 |  | > 25 | 0.00458 |  |  | 0.00763 | 0.0212 | 0.00602 | 0.00837 | 0.00295 | 0.0071 | > 25 | 0.00513 | 0.00856 | 0.0025
20 | COc1ccc(OC)c(CCc2cc(OC)c(OC)cc2C)c1 | > 100 | > 100 |  | > 100 | > 100 |  |  |  |  |  |  | 90.1 |  |  |  |  |  |  |  | 
21 | Nc1ccc(-c2ccc(-c3nc4ccccc4[nH]3)cc2)cc1 | > 100 | > 100 | 40.9 | > 65.1 |  |  | > 100 | 1.88 | 29.6 | > 100 | 3.34 | 39.9 | < 0.0506 | 0.196 | 0.32 | 8.09 | > 100 | 4.26 | 0.765 | 
22 | CC1CC(=O)C(C(O)CC2CC(=O)N(c3ccccc3)C(=O)C2)C(C)C1 (centres undefined) |  | > 100 | > 100 | > 100 | > 100 | > 100 |  |  |  |  |  | > 100 |  |  |  |  |  |  |  | 
23 | N#Cc1c(NC(=O)CCC(=O)O)ccc2ccccc12 | > 100 | > 100 | > 100 | > 100 | > 100 |  | > 100 |  |  | > 100 |  | > 100 |  |  |  |  | > 100 |  |  | 
